“Also recorded” adds a separate entry of the source. Read-outs that look alike come from different tables or passages of the source.
Key:
[1] = tested on: skeletal and cardiac actin; parameters: method as in PMID 32788211; conditions: cited from earlier work; for isoform-specific differences in actin polymerization: skeletal versus cardiac actin
PFA.C.S1 complex = target: T1, PFA.C.S1 complex (Oryctolagus cuniculus, UniProt P68135); assay: Chase experiment: dissociation of S1 from rigor actin-S1 complex by unlabeled F-actin; format: biochemical, bovine; conditions: 20-fold unlabeled F-actin chase, 0.25 μM PFA.S1, 20 min
T1 construct: Rabbit skeletal F-actin was prepared as described previously from acetone powder; tissue Pelfreez Biologicals (bovine left ventricular muscle); host or cells: rabbit skeletal muscle (actin); bovine left ventricular muscle (myosin S1)
Source text: The transient curve was best fitted to a double exponential equation to yield a fast and slow rate constant of 0.01 ± 5E-4 s^−1 and 0.003 ± 4E-4 s^−1, respectively.

[2] = target: T2, pyrene-labeled F-actin (PFA) (Oryctolagus cuniculus, UniProt P68135); assay: Compound binding to pyrene-labeled F-actin, steady-state fluorescence dose response; parameters: species or system rabbit; conditions: for effect on PFA (pyrene) fluorescence, dose-response: 2.5–150 μM compound
T2 construct: Rabbit skeletal F-actin was prepared as described previously from acetone powder; from tissue; host or cells: rabbit skeletal muscle (acetone powder)

[3] = target: T3, PFA.C.S1 complex (F-actin with cardiac S1) (Oryctolagus cuniculus, UniProt P68135); assay: Steady-state S1 binding to and ATP-induced dissociation from the PFA.compound complex; format: biochemical, bovine; conditions: 0.7:1 S1:actin, rigor; compound 100 μM except Flu and Dan 50 μM, Mit 10 μM
T3 construct: Rabbit skeletal F-actin was prepared as described previously from acetone powder; tissue Pelfreez Biologicals (bovine left ventricular muscle); host or cells: rabbit skeletal muscle (actin); bovine left ventricular muscle (myosin S1)
Method: We then added Mg.ATP and measured PFA fluorescence (Fig. 8B, peach bars).
Fluorescence spectra of 2 μM PFA in F-Mg buffer were acquired with a Cary spectrophotometer. The sample was placed in a cuvette in a temperature-controlled holder and excited with a Xenon flash lamp at 365 nm with 5 nm slit width. Emission fluorescence intensity was acquired and averaged for 30 s at 407 nm with a 10 nm slit width. […] Fluorescence intensity (F) was corrected for each compound's emission at 407 nm.
Fcalc was determined from normalized fluorescence intensity:(5) Fcalc=(FCompound+F0.7S1)

[4] = target: T4, rigor PFA.S1 complex (cardiac myosin S1) (Oryctolagus cuniculus, UniProt P68135); assay: Stopped-flow ATP-induced dissociation of actin-S1 complex (ATP binding and isomerization); format: biochemical, bovine; conditions: for overall category of compound effect: severe if at least one parameter (K1 or k+2) was affected >3-fold; for decrease in rate constant k+2 for isomerization versus control: hyperbolic fits of kobs1 versus [MgATP]; for effect on K1 (shown as 1/K1), category: versus control
T4 construct: Rabbit skeletal F-actin was prepared as described previously from acetone powder; tissue Pelfreez Biologicals (bovine left ventricular muscle); host or cells: rabbit skeletal muscle (actin); bovine left ventricular muscle (myosin S1)
Method: To determine the equilibrium constant K1 for the formation of the collision complex, A.M.T, the rigor complex of PFA and myosin-S1 complex was formed in one syringe and the Mg.ATP placed in another syringe. […] (Equation 10). The rate constant k+2 was determined from hyperbolic plots of kobs1 versus [MgATP] […] The association equilibrium constant K1 was determined from the ratio of K1k+2/k+2.
Experiments were performed at 25 °C with filtered and degassed solutions. The instrument dead time for single-mix experiments was 1.3 ms. Samples were excited at 365 nm, and pyrene emission fluorescence was acquired with a 2 mm path length and 400 nm long-pass filter. Data analysis was done using the program, ORIGIN (OriginLab Corp).
K1 was determined by mixing the rigor complex of PFA.S1 (A.M) (final concentration of 0.05 μM) with varying final concentrations of MgATP (12.5–1000 μM) in F-Mg buffer in the absence and presence of the compounds, whereby the PFA.compound complex was first made, then mixed with S1, and placed in one syringe, and MgATP solution was placed in the other syringe. The transient curves were fitted to rate constants, kobs, fast and kobs, slow, and with corresponding amplitudes A1 and A2.

[5] = tested on: PFA.S1 (pyrene-labeled F-actin with cardiac myosin S1); assay: Steady-state PFA fluorescence with myosin-binding drugs (PFA, PFA.S1, plus MgATP); format: biochemical, bovine; conditions: 5 μM drug; for change in PFA fluorescence: 2 μM PFA, no S1; for PFA fluorescence restored by addition of MgATP: 2 μM PFA.S1, 1 mM MgATP, 95% without compound; for effect on S1-induced decrease in pyrene fluorescence: S1 equimolar to actin, no ATP
Method: (§1) Fluorescence spectra of 2 μM PFA in F-Mg buffer were acquired with a Cary spectrophotometer. The sample was placed in a cuvette in a temperature-controlled holder and excited with a Xenon flash lamp at 365 nm with 5 nm slit width. Emission fluorescence intensity was acquired and averaged for 30 s at 407 nm with a 10 nm slit width. A final concentration of 2 μM PFA in F-actin buffer was used. Fluorescence intensity (F) was corrected for each compound's emission at 407 nm.

[6] = clinical use, cited from earlier work; for liver toxicity: ref 26 for Dan
[7] = tested on: equimolar PFA.S1 (2 μM) complex; assay: Effect of nucleotide analogs on PFA-S1 fluorescence; format: biochemical, bovine; conditions: 10 mM PPi
Method: The ten compounds were obtained from Target Molecule Corp and stored at –20 °C as 10 mM stock solutions in DMSO until use. OM and Mava were obtained from Selleck Chemicals and stored as 10 mM stock solutions at –20 °C until use. Sodium vanadate ([…]) and potassium pyrophosphate (PPi) were obtained from Sigma-Aldrich, and stock solutions of 50 mM and 1 M, respectively, were prepared as described previously ([36]). […] To study the effect of pyrophosphate, 10 mM PPi was added to an equimolar PFA.S1 (2 μM) complex. These ligand concentrations were saturating.
as §1

[8] = 2 μM PFA, 200-500 μM MgATP, read-out: Kd of compound binding to PFA in the presence of MgATP
[9] = 2 μM PFA, no MgATP, fits to the Hill equation, read-out: apparent dissociation equilibrium constant, Kd, of compound binding to PFA

| Structure (SMILES) | polymerization rate of skeletal and cardiac actin [1] | effect on PFA (pyrene) fluorescence, dose-response ([2]; 2 μM PFA) | decrease in PFA fluorescence of PFA.compound.S1, experimental versus calculated (Fcalc) [3] | increase in K1 versus control [4] [factor] | overall category of compound effect [4] | other results |
| --- | --- | --- | --- | --- | --- | --- |
| O=C1c2c(O)ccc(O)c2C(=O)c2c(NCCNCCO)ccc(NCCNCCO)c21 [Mit, mitoxantrone] | reduced the polymerization rate | decreased PFA fluorescence with hyperbolic dependence | smaller decrease in PFA fluorescence than expected | ≥ 2 | severe (severe effects to be >3-fold) | rate of dissociation of S1 from rigor actin-S1 complex versus control (PFA.C.S1 complex): No significant change; Kd [2, 8]: 24.7 ± 5.8 µM; Kd [2, 9]: 7.2 ± 1.2 µM; effect of MgATP on fluorescence of PFA–compound complexes ([2]; 200-500 μM MgATP): increased PFA fluorescence in the presence of MgATP; also recorded: MgATP relieves the fluorescence inhibition |
| C=CCc1ccc(O)c(-c2ccc(O)c(CC=C)c2)c1 [Hon] | did not have significant effects | minimal effects | no effect | – | mild (mild effects to be <1.5-fold) | decrease in rate constant k+2 for isomerization versus control [4]: < 1.5 fold; effect on K1 (shown as 1/K1), category [4]: mild (mild effects to be <1.5-fold) |
| COc1ccccc1OCCNCC(O)COc1cccc2[nH]c3ccccc3c12 (stereo not shown) [Car] | reduced the polymerization rate | minimal effects | greater decrease in PFA fluorescence | – | mild (mild effects to be <1.5-fold) | decrease in rate constant k+2 for isomerization versus control [4]: < 1.5 fold; effect on K1 (shown as 1/K1), category [4]: mild (mild effects to be <1.5-fold) |
| COC(=O)N1CCN(Cc2cccc(NC(=O)Nc3ccc(C)nc3)c2F)CC1 [OM, omecamtiv mecarbil] | – | – | – | – | – | change in PFA fluorescence [5]: 4%; PFA fluorescence restored by addition of MgATP [5]: 65%; effect on S1-induced decrease in pyrene fluorescence [5]: no effect |
| CCCCCNC(=N)N/N=C/c1c[nH]c2ccc(OC)cc12 [Teg] | – | minimal effects | smaller decrease in PFA fluorescence than expected | ≥ 2 | severe (severe effects to be >3-fold) | heart failure ([6]; FDA caution or withdrawal): can contribute to heart failure; isoform-specific differences in actin polymerization [1]: showed isoform-specific differences |
| OCCN1CCN(CCCN2c3ccccc3Sc3ccc(C(F)(F)F)cc32)CC1 [Flp] | reduced the polymerization rate | – | – | – | – | liver toxicity [6]: cause liver toxicity |
| CC(C)n1c(=O)cc(N[C@@H](C)c2ccccc2)[nH]c1=O [Mava, mavacamten] | – | – | – | – | – | change in PFA fluorescence [5]: 1%; PFA fluorescence restored by addition of MgATP [5]: 97%; effect on S1-induced decrease in pyrene fluorescence [5]: no effect |
| O=C1CN(/N=C/c2ccc(-c3ccc([N+](=O)[O-])cc3)o2)C(O)=N1 [Dan, Dantrolene] | did not have significant effects | decreased PFA fluorescence with hyperbolic dependence | smaller decrease in PFA fluorescence than expected | ≥ 2 | severe (severe effects to be >3-fold) | liver toxicity [6]: causes hepatoxicity; rate of dissociation of S1 from rigor actin-S1 complex versus control (PFA.C.S1 complex): No significant change; Kd [2, 9]: 17.5 ± 6 µM |
| O=P([O-])([O-])OP(=O)([O-])[O-].[K+].[K+].[K+].[K+] [potassium pyrophosphate (PPi), potassium pyrophosphate] | – | – | – | – | – | restoration of pyrene fluorescence of PFA-S1 [7]: almost completely restored |
| CC(C)C(=O)Nc1ccc([N+](=O)[O-])c(C(F)(F)F)c1 [Flu] | – | decreased PFA fluorescence with hyperbolic dependence | smaller decrease in PFA fluorescence than expected | ≥ 2 | severe (severe effects to be >3-fold) | rate of dissociation of S1 from rigor actin-S1 complex versus control (PFA.C.S1 complex): No significant change; Kd [2]: 39.6 ± 22 µM; effect of MgATP on fluorescence of PFA–compound complexes ([2]; 200-500 μM MgATP): MgATP relieves the fluorescence inhibition |
| CSc1ccc2c(c1)N(CCC1CCCCN1C)c1ccccc1S2 (stereo not shown) [Thi] | reduced the polymerization rate | – | – | – | – | liver toxicity [6]: cause liver toxicity; isoform-specific differences in actin polymerization [1]: showed isoform-specific differences |
| c1ccc2c(c1)Nc1ccccc1S2 [Phn] | – | minimal effects | greater decrease in PFA fluorescence | ≥ 2 | severe (severe effects to be >3-fold) | isoform-specific differences in actin polymerization [1]: showed isoform-specific differences |
| OC(c1cc(C(F)(F)F)nc2c(C(F)(F)F)cccc12)C1CCCCN1 (stereo not shown) [Mef] | did not have significant effects | decreased PFA fluorescence with hyperbolic dependence | smaller decrease in PFA fluorescence than expected | ≥ 2 | severe (severe effects to be >3-fold) | Kd [2, 8]: 89 ± 28.4 µM; Kd [2, 9]: 20 ± 10 µM; effect of MgATP on fluorescence of PFA–compound complexes ([2]; 200-500 μM MgATP): increased PFA fluorescence in the presence of MgATP; also recorded: MgATP relieves the fluorescence inhibition |
